The nature of this data set: pH solubility profile of Compound 1 in buffers, water, HCl and biorelevant media. The format is physicochemical.

Structures are written as SMILES. In brackets after ≈: the same amount, converted by molar mass.

The term solubility denotes the concentration that dissolves in the medium under given conditions. High values mean much dissolved substance, low ones little dissolved substance. `Cc1ccc(NC(=O)[C@H]2CCCN(C(=O)c3c(C)cccc3F)[C@H]2c2ccc(NC3CCCC3)cc2)cc1C(F)(F)F` [Compound 1, (2R,3 S)-2-(4-(cyclopentylamino)phenyl)-1-(2-fluoro-6-methylbenzoyl)-N-(4-methyl-3-(trifluoromethyl)phenyl)piperidine-3-carboxamide]: the solubility by setting is: (Fasted-State Simulated Intestinal Fluid (FaSSIF), FaSSIF, pH 6.5, actual pH 6.47) 0.656 µg/mL (≈ 1.13 µM); (Fed-State Simulated Intestinal Fluid (FeSSIF), FeSSIF, pH 5, actual pH 4.98) 2.09 µg/mL (≈ 3.6 µM); (Fed-State Simulated Intestinal Fluid (FeSSIF), FeSSIF, pH 6.5, actual pH 6.47) 1.96 µg/mL (≈ 3.37 µM); (Simulated Gastric Fluid (SGF), simulated gastric fluid, SGF, pH 1.6, actual pH 1.39) 2.65 µg/mL (≈ 4.55 µM); (Water, actual pH 5.92) 0.008 µg/mL (≈ 0.0138 µM); (aqueous buffer, pH 2 Buffer, actual pH 1.99) 0.863 µg/mL (≈ 1.48 µM). The solubility reads like this: (aqueous buffer, pH 3 Buffer, actual pH 3.01) 0.101 µg/mL (≈ 0.174 µM); (aqueous buffer, pH 4 Buffer, actual pH 4.01) 0.013 µg/mL (≈ 0.0224 µM); (aqueous buffer, pH 5 Buffer, actual pH 5.00) 0.021 µg/mL (≈ 0.0361 µM); (aqueous buffer, pH 6 Buffer, actual pH 6.00) 0.021 µg/mL (≈ 0.0361 µM); (aqueous buffer, pH 7 Buffer, actual pH 7.03) 0.053 µg/mL (≈ 0.0911 µM); (aqueous buffer, pH 8 Buffer, actual pH 8.00) 0.068 µg/mL (≈ 0.117 µM). The molecule also yielded a solubility (aqueous buffer, pH 9 Buffer, actual pH 9.00) of 0.101 µg/mL (≈ 0.174 µM); a solubility (aqueous buffer, pH 10 Buffer, actual pH 9.95) of 0.03 µg/mL (≈ 0.0516 µM); a solubility (simulated gastric fluid, 0.1N HCl, actual pH 1.05) of 8.05 µg/mL (≈ 13.8 µM). In addition, the aqueous solubility entry (across full spectrum of pH range, including the biorelevant media and water) is listed as “very poor aqueous solubility”.
